The values below come from ChEMBL document CHEMBL4184305, “Inhibition of histone lysine methyltransferases G9a and GLP by ejection of structural Zn(II)” (Bioorg Med Chem Lett, 2018).

Calls of active or inactive are those of the source. The calls are words filed in the database; no cut-off is given here.

The target in test [1] is T1, Histone-lysine N-methyltransferase EHMT2 (Homo sapiens) (UniProt Q96KQ7).
T1 sequence (whole entry): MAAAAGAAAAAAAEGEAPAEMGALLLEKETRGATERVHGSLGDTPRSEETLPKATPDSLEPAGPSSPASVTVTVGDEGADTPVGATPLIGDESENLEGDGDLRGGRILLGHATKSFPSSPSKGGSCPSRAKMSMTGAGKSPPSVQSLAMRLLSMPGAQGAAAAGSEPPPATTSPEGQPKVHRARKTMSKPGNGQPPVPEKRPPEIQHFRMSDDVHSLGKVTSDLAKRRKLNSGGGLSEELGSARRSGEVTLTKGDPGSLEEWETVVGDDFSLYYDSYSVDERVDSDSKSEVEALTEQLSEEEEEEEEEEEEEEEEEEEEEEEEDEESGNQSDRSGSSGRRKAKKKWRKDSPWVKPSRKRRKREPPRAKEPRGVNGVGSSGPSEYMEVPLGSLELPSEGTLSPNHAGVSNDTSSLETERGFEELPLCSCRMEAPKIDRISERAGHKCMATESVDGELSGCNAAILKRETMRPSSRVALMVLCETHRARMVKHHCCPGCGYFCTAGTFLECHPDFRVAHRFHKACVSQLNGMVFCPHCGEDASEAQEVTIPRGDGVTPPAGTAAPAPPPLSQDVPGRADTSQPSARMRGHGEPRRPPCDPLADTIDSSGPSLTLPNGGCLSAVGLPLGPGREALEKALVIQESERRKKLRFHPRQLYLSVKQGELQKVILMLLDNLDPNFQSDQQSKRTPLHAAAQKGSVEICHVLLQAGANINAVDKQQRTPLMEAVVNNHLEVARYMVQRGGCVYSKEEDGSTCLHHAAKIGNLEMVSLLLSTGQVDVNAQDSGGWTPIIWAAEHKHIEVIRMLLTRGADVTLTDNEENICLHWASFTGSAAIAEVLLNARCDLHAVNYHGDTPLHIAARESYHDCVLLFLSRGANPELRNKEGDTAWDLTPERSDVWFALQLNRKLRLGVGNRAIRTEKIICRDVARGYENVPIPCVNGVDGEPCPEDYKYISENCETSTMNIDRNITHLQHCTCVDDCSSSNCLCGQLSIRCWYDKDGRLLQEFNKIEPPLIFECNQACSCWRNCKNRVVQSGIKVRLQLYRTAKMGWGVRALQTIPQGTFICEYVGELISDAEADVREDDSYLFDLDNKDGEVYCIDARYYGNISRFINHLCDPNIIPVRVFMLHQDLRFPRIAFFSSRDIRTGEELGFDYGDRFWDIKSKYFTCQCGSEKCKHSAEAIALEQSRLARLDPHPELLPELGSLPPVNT
As to the kind of experiment: Inhibition of wild type recombinant human histone lysine methyltransferase G9a (913 to 1193 residues) expressed in Escherichia coli Rosetta BL21 DE3 PlysS assessed as zinc ions ejection from Cys4-Zn finger at 100 uM by FluoZin-3 based fluorescence assay.

Test [2] concerns the target T1, Histone-lysine N-methyltransferase EHMT2 (Homo sapiens). Put plainly: Inhibition of wild type recombinant human histone lysine methyltransferase G9a (913 to 1193 residues) expressed in Escherichia coli Rosetta BL21 DE3 PlysS at 100 uM using ARTKQTARKSTGGKA as substrate preincubated for 5 mins followed by substrate/SAM addition measured after 60 mins by MALDI-TOF MS analysis.

Test [3] has as its target T2, Histone-lysine N-methyltransferase EHMT1 (Homo sapiens) (UniProt Q9H9B1).
T2 sequence (whole entry): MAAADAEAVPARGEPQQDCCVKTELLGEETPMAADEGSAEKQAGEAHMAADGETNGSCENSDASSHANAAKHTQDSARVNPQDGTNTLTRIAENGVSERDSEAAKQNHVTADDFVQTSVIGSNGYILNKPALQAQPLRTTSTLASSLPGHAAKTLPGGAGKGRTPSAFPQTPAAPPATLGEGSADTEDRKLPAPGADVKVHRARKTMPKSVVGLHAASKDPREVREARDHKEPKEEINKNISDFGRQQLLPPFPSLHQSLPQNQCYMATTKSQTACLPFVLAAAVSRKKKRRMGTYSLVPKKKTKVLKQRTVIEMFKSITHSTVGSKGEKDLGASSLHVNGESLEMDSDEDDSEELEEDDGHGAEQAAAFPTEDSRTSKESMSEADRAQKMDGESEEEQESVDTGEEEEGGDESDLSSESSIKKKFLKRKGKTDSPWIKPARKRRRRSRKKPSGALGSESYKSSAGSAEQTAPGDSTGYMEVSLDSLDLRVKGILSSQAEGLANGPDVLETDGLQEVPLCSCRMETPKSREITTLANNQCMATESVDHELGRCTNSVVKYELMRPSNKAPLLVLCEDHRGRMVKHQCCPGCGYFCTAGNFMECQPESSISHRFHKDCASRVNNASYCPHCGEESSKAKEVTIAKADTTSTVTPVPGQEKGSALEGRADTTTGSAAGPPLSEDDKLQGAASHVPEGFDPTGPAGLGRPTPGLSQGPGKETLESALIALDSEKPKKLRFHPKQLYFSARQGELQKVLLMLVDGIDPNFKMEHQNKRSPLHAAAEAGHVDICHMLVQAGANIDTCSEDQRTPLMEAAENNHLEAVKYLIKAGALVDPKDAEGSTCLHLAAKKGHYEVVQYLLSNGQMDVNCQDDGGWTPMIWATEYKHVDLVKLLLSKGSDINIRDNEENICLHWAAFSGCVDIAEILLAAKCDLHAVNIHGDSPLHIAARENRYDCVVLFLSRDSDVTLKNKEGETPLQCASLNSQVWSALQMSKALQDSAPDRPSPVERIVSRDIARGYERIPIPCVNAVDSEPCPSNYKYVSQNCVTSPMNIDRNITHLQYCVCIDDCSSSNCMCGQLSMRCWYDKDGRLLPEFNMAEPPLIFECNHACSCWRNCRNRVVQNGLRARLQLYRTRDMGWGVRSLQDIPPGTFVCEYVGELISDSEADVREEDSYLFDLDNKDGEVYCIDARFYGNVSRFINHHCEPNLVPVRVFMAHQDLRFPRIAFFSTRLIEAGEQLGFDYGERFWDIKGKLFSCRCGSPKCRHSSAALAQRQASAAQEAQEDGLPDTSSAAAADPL
Put plainly: Inhibition of wild type recombinant human histone lysine methyltransferase GLP (951 to 1235 residues) expressed in Escherichia coli Rosetta BL21 DE3 PlysS at 10 uM using ARTKQTARKSTGGKA as substrate preincubated for 5 mins followed by substrate/SAM addition measured after 60 mins by MALDI-TOF MS analysis.

The target in test [4] is T1, Histone-lysine N-methyltransferase EHMT2 (Homo sapiens). As to the kind of experiment: Inhibition of wild type recombinant human histone lysine methyltransferase G9a (913 to 1193 residues) expressed in Escherichia coli Rosetta BL21 DE3 PlysS at 10 uM using ARTKQTARKSTGGKA as substrate preincubated for 5 mins followed by substrate/SAM addition measured after 60 mins by MALDI-TOF MS analysis.

For test [5], the target named is T2, Histone-lysine N-methyltransferase EHMT1 (Homo sapiens). As to the kind of experiment: Inhibition of wild type recombinant human histone lysine methyltransferase GLP (951 to 1235 residues) expressed in Escherichia coli Rosetta BL21 DE3 PlysS assessed as zinc ions ejection from Cys4-Zn finger at 100 uM by FluoZin-3 based fluorescence assay.
The target of test [6] is T3, Histone-lysine N-methyltransferase EHMT2 (Homo sapiens, UniProt Q96KQ7).
T3 sequence (Q96KQ7 whole entry): T1 sequence (whole entry)
As to the kind of experiment: Inhibition of wild type recombinant human histone lysine methyltransferase G9a (913 to 1193 residues) expressed in Escherichia coli Rosetta BL21 DE3 PlysS using ARTKQTARKSTGGKA as substrate preincubated for 5 mins followed by substrate/SAM addition measured after 60 mins by MALDI-TOF MS analysis.

The target in test [7] is T4, Histone-lysine N-methyltransferase EHMT1 (Homo sapiens, UniProt Q9H9B1).
T4 sequence (Q9H9B1 whole entry): T2 sequence (whole entry)
Put plainly: Inhibition of wild type recombinant human histone lysine methyltransferase GLP (951 to 1235 residues) expressed in Escherichia coli Rosetta BL21 DE3 PlysS using ARTKQTARKSTGGKA as substrate preincubated for 5 mins followed by substrate/SAM addition measured after 60 mins by MALDI-TOF MS analysis.

The target in test [8] is T2, Histone-lysine N-methyltransferase EHMT1 (Homo sapiens). As to the kind of experiment: Inhibition of wild type recombinant human histone lysine methyltransferase GLP (951 to 1235 residues) expressed in Escherichia coli Rosetta BL21 DE3 PlysS at 100 uM using ARTKQTARKSTGGKA as substrate preincubated for 5 mins followed by substrate/SAM addition measured after 60 mins by MALDI-TOF MS analysis.

For orientation: inhibition means the change of the read-out against control, counted positive when it falls. In general, IC50 refers to the concentration needed to halve the response being measured.

For `c1ccc([Se][Se]c2ccccc2)cc1`, the inhibition entry in test [1] and in test [5] was “Active” each time. Besides, the inhibition in test [2] and in test [8] was above 50% in each case. Moreover, the inhibition entry in test [3] and in test [4] was “inactive” each time. The 50% inhibitory concentration (IC50) was found to be 550 nM in test [6] and 860 nM in test [7].

`O=C1c2ccccc2C(=O)c2ccccc21` [ANTHRAQUINONE]: the inhibition entry in test [1] and in test [5] was “Active” each time. The inhibition in test [2] and in test [8] was 20% in each case. The inhibition entry in test [3] and in test [4] was “inactive” each time. The IC50 in test [6] and in test [7] was above 100000 nM throughout.

With `O=C1C=CC(=O)c2ccccc21` [NAPHTHOQUINONE], the inhibition entry in test [1] and in test [5] was “Active” throughout. The inhibition in test [2] and in test [8] was above 50% each time. For the same compound, the inhibition entry in test [3] and in test [4] was “inactive” in each case. The IC50 in test [6] was 2000 nM; in test [7], 14000 nM.

With `Br[Se]c1ccccc1`, the inhibition result in test [1] and in test [5] was “Active” throughout. Also, the inhibition in test [2] and in test [8] was above 50% in each case. Moreover, the inhibition result in test [3] and in test [4] was “inactive” throughout. Besides, the IC50 amounted to 790 nM in test [6] and 1500 nM in test [7].
